The record followed here is patent US20260234164A1, “BIPHENYL COMPOUND AS IMMUNOMODULATOR, PREPARATION METHOD THEREFOR AND USE THEREOF” (SHENZHEN CHIPSCREEN BIOSCIENCES CO., LTD., priority 2021, published 2026).

Test [1] addresses T1, PD-1/PD-L1 binding (Homo sapiens, UniProt Q9NZQ7).
T1 construct: purchased Sino Biological Inc. 10084-H02H-100 (PD-L1-Fc); 10377-H08H-50 (His-PD-1)
In words: HTRF inhibition of PD-1/PD-L1 binding in vitro. As to conditions: His-PD-1 100 nM, PD-L1-Fc 2 nM, read-out: IC50 inhibiting PD-1/PD-L1 binding in vitro. The text has this: Homogeneous Time-Resolved Fluorescence (HTRF): This method used the recombinant human PD-L1 protein fused to express the hFc tag and the recombinant human PD-1 protein fused to express the His tag, both of which were interacting ligands and receptors. When the anti-hFc antibody containing Eu element chelation marker and the anti-His antibody labeled with XL665 fluorescein were bound with the above two corresponding labels, and excited by a laser with a wavelength of 320 nm, the ligand-receptor binding enabled the energy to be transferred from the Eu element to the XL665 fluorescein, which was excited to emit light at a wavelength of 665 nm. However, when an inhibitor of the interaction between PD-L1 and PD-1 was added, the binding of the ligand to the receptor was destroyed, so that the distance between Eu and XL665 was far away, the energy cannot be transferred, and XL665 would not be excited.
Recombinant human PD-1 protein with His tag (His-PD-1 protein, Cat #: 10377-H08H-50), and recombinant human PD-L1-Fc fusion protein (PD-L1-Fc fusion protein, Cat #: 10084-H02H-100) were purchased from Sino Biological Inc., […] and anti-His-XL665 antibody were purchased from Cisbio Company, and other related reagents such as dilution buffer (Diluent buffer 5, Cat #: 62DL5DDC), detection buffer (PPI-Europium detection buffer, Cat #: 61DB9RDF) were purchased from Cisbio Company. Fluorescence detection instrument Tecan (Spark 10 M) was purchased from Switzerland Tecan Company.
(1) Experimental preparation: The test compound was diluted with dilution buffer into different concentration gradients (the highest final concentration in 20 μL final reaction system was 10 μM), His-PD-1 protein was diluted to 800 nM (the final concentration in 20 μL final reaction system was 100 nM), and the PD-L1-Fc fusion protein was diluted to 16 nM (final concentration was 2 nM). The anti-His-XL665 antibody and anti-hFc-Eu^3+ antibody were respectively diluted 20 times and 100 times using the detection buffer according to the reagent requirements.
(2) 5 μL of test compound, 2.5 μL of PD-L1-Fc fusion protein and 2.5 μL of His-PD-1 protein solution were mixed, and incubated at room temperature for 15 min. Then the system was added with 5 μL of anti-His-XL665 antibody and 5 μL of anti-hFc-Eu^3+ antibody, incubated for another 3 h, and then detected.
(3) When detecting the reaction, a control group was also provided, including a 0% inhibition positive control without adding test compounds and a 100% inhibition negative control without adding PD-1 protein. All detections were performed with duplicates.
(4) The fluorescence signal of each well was measured using a fluorescence detector Tecan (Spark 10M) at an excitation wavelength of 320 nm, and emission wavelengths of 620 nm and 665 nm, respectively. The intensity of the mutual binding of PD-1 and PD-L1 referred to the ratio of fluorescence signals Em665/Em620.
(5) The binding inhibition rate of the test compound was calculated as follows: Inhibition rate (%)=[1−(Fluorescence signal ratio of detection well-fluorescence signal ratio of 100% inhibition negative control)]/(fluorescence signal ratio of 0% inhibition positive control-fluorescence signal ratio of 100% inhibition negative control)×100%. After calculating the inhibition rate on PD-1/PD-L1 binding of the test compounds with different concentration gradients, the 50% inhibitory concentration (IC50) was calculated.

For test [2], the target named is T2, CD80/PD-L1 binding (Homo sapiens, UniProt Q9NZQ7).
T2 construct: purchased Sino Biological Inc. 10084-H02H-100 (PD-L1-Fc); 10698-H08H-100 (His-CD80)
T2 sequence (Q9NZQ7 19-239 limits assumed): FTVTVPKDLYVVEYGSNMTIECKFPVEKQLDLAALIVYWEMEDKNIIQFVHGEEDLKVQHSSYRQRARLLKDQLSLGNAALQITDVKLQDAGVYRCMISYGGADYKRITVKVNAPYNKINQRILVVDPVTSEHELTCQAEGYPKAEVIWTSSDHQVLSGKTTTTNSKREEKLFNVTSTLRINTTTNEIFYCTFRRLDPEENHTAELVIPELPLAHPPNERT
In words: HTRF inhibition of CD80/PD-L1 binding in vitro. As to conditions: His-CD80 100 nM, PD-L1-Fc 2 nM, read-out: IC50 inhibiting CD80/PD-L1 binding in vitro. The text has this:
In addition to PD-1, PD-L1 can also exert immunosuppressive activity by binding to CD80. Similarly, in vitro experiments of binding or binding inhibition of CD80 and PD-L1 can also be measured by homogeneous time-resolved fluorescence (HTRF). When the anti-hFc-Eu^3+ antibody and anti-His-XL665 antibody were bound to the hFC tag fused to PD-L1 and the His tag fused to CD80 respectively, and excited with a 320 nm wavelength laser, the binding of PD-L1 and CD80 enabled energy to be transferred from the Eu element to the XL665 fluorescein, which was excited to emit light. When the inhibitor of the interaction between PD-L1 and CD80 was added, the combination of the two was destroyed, so that the distance between Eu and XL665 was far away, the energy cannot be transferred, and XL665 would not be excited.
Recombinant human CD80 protein with His tag (His-CD80 protein, Cat #: 10698-H08H-100), and recombinant human PD-L1-Fc fusion protein (PD-L1-Fc fusion protein, Cat #: 10084-H02H-100) were purchased from Sino Biological Inc., anti-hFc-Eu^3+ antibody and anti-His-XL665 antibody were purchased from Cisbio Company, and other related reagents such as dilution buffer (Diluent buffer 5, Cat #: 62DL5DDC), detection buffer (PPI-Europium detection buffer, Cat #: 61DB9RDF) were purchased from Cisbio Company. Fluorescence detection instrument Tecan (Spark 10 M) was purchased from Switzerland Tecan Company.
(1) Experimental preparation: The test compound was diluted with dilution buffer into different concentration gradients (the highest final concentration in 20 μL final reaction system was 10 μM), His-CD80 protein was diluted to 800 nM (the final concentration in 20 μL final reaction system was 100 nM), and the PD-L1-Fc fusion protein was diluted to 16 nM (final concentration was 2 nM). The anti-His-XL665 antibody and anti-hFc-Eu^3+ antibody were respectively diluted 20 times and 100 times using the detection buffer according to the reagent requirements.
(2) 5 μL of test compound, 2.5 μL of Hid-CD80 protein and 2.5 μL of […] solution were mixed, and incubated at room temperature for 15 min. Then the system was added with 5 μL of anti-His-XL665 antibody and 5 μL of anti-hFc-Eu^3+ antibody, incubated for another 3 h, and then detected.
(3) When detecting the reaction, a control group was provided, including a 0% inhibition positive control without adding test compounds and a 100% inhibition negative control without adding CD-80 protein. All detections were performed with duplicates.
(4) The fluorescence signal of each well was measured using a fluorescence detector Tecan (Spark 10M) at an excitation wavelength of 320 nm, and emission wavelengths of 620 nm and 665 nm, respectively. The intensity of the mutual binding of CD80 and PD-L1 referred to the ratio of fluorescence signals Em665/Em620.
(5) The binding inhibition rate of the test compound was calculated as follows: Inhibition rate (%)=[1−(Fluorescence signal ratio of detection well-fluorescence signal ratio of 100% inhibition negative control)]/(fluorescence signal ratio of 0% inhibition positive control-fluorescence signal ratio of 100% inhibition negative control)×100%. After calculating the inhibition rate on CD80/PD-L1 binding of the test compounds with different concentration gradients, the 50% inhibitory concentration (IC50) was calculated.
On the technique in general: Time-resolved FRET reads energy transfer from a long-lived donor to a nearby acceptor.

T1 sequence (Q9NZQ7 19-239 limits assumed): as above

As for `[2H]C([2H])([2H])n1c(C(=O)Nc2cccc(-c3cccc(NC(=O)c4nc5c(n4C([2H])([2H])[2H])CCN(CCC46CCC(C(=O)O)(CC4)C6)C5)c3Cl)c2F)nc2c1CCN(CCC13CCC(COC)(CC1)C3)C2` (single isomer, unassigned) [Compound I-8, 4-(2-(2-((2-chloro-2′-fluoro-3′-(5-(2-(4-(methoxymethyl)bicyclo[2.2.1]heptane-1-yl)ethyl)-1-(methyl-d3)-4,5,6,7-tetrahydro-1H-imidazo[4,5-c]pyridine-2-carboxamido)-[1,1′-biphenyl]-3-yl)carbamoyl)-1-(methyl-d3)-1,4,6,7-tetrahydro-5H-imidazo[4,5-c]pyridin-5-yl)ethyl)bicyclo[2.2.1]heptane-1-carboxylic acid], the IC50 in test [1] is 1.63 nM; in test [2] it was 1.77 nM.

On to `[2H]C([2H])([2H])n1c(C(=O)Nc2cccc(-c3cccc(NC(=O)c4nc5c(n4C([2H])([2H])[2H])CCN(CCC46CCC(COC)(CC4)C6)C5)c3Cl)c2C)nc2c1CCN(CCC13CCC(C(=O)O)(CC1)C3)C2` [Compound I-12, 4-(2-(2-((2′-chloro-3′-(5-(2-(4-(methoxymethyl)bicyclo[2.2.1]heptane-1-yl)ethyl)-1-(methyl-d3)-4,5,6,7-tetrahydro-1H-imidazo[4,5-c]pyridine-2-carboxamido)-2-methyl-[1,1′-biphenyl]-3-yl)carbamoyl)-1-(methyl-d3)-1,4,6,7-tetrahydro-5H-imidazo[4,5-c]pyridin-5-yl)ethyl)bicyclo [2.2.1]heptane-1-carboxylic acid], for which the IC50 stood at 3.8 nM in test [1] and 2.94 nM in test [2].

In the case of `[2H]c1c([2H])c(NC(=O)c2nc3c(n2C([2H])([2H])[2H])CCN(CCC24CCC(COC([2H])([2H])[2H])(CC2)C4)C3)c(Cl)c(-c2c([2H])c([2H])c([2H])c(NC(=O)c3nc4c(n3C([2H])([2H])[2H])CCN(CCC35CCC(C(=O)O)(CC3)C5)C4)c2Cl)c1[2H]` [Compound I-13, 4-(2-(2-((2,2′-dichloro-3′-(5-(2-(4-((methoxy-d3)methyl)bicyclo[2.2.1]heptane-1-yl)ethyl)-1-(methyl-d3)-4,5,6,7-tetrahydro-1H-imidazo[4,5-c]pyridine-2-carboxamido)-[1,1′-biphenyl]-3-yl-4,4′, 5,5′,6,6′-d6)carbamoyl)-1-(methyl-d3)-1,4,6,7-tetrahydro-5H-imidazo[4,5-c]pyridin-5-yl)ethyl)bicyclo[2.2.1]heptane-1-carboxylic acid], the IC50 in test [1] worked out at 1.23 nM; in test [2] it was 1.44 nM.

Consider `[2H]C([2H])([2H])OCC12CCC(CCN3CCc4c(nc(C(=O)Nc5cccc(-c6cccc(NC(=O)c7nc8c(n7C([2H])([2H])[2H])CCN(CCC79CCC(C(=O)O)(CC7)C9)C8)c6C)c5Cl)n4C([2H])([2H])[2H])C3)(CC1)C2` [Compound I-11, 4-(2-(2-((2′-chloro-3′-(5-(2-(4-((methoxy-d3)methyl)bicyclo[2.2.1]heptane-1-yl)ethyl)-1-(methyl-d3)-4,5,6,7-tetrahydro-1H-imidazo[4,5-c]pyridine-2-carboxamido)-2-methyl-[1,1′-biphenyl]-3-yl)carbamoyl)-1-(methyl-d3)-1,4,6,7-tetrahydro-5H-imidazo[4,5-c]pyridin-5-yl)ethyl)bicyclo[2.2.1]heptane-1-carboxylic acid], for which the IC50 in test [1] worked out at 4.21 nM; in test [2] it was 3.21 nM.

On to `[2H]C([2H])([2H])n1c(C(=O)Nc2cccc(-c3cccc(NC(=O)c4nc5c(n4C([2H])([2H])[2H])CCN(CCC46CCC(C(=O)O)(CC4)C6)C5)c3Cl)c2C)nc2c1CCN(CCC13CCC(COC)(CC1)C3)C2` [Compound I-10, 4-(2-(2-((2-chloro-3′-(5-(2-(4-(methoxymethyl)bicyclo[2.2.1]heptane-1-yl)ethyl)-1-(methyl-d3)-4,5,6,7-tetrahydro-1H-imidazo[4,5-c]pyridine-2-carboxamido)-2′-methyl-[1,1′-biphenyl]-3-yl)carbamoyl)-1-(methyl-d3)-1,4,6,7-tetrahydro-5H-imidazo[4,5-c]pyridin-5-yl)ethyl)bicyclo[2.2.1]heptane-1-carboxylic acid], for which the IC50 in test [1] amounted to 3.59 nM; in test [2] it was 4.26 nM.

Regarding `[2H]C([2H])([2H])OCC12CCC(CCN3CCc4c(nc(C(=O)Nc5cccc(-c6cccc(NC(=O)c7nc8c(n7C)CCN(CCC79CCC(C(=O)O)(CC7)C9)C8)c6C)c5Cl)n4C)C3)(CC1)C2` [Compound I-3, 4-(2-(2-((2′-chloro-3′-(5-(2-(4-((methoxy-d3)methyl)bicyclo[2.2.1]heptane-1-yl)ethyl)-1-methyl-4,5,6,7-tetrahydro-1H-imidazo[4,5-c]pyridine-2-carboxamido)-2-methyl-[1,1′-biphenyl]-3-yl)carbamoyl)-1-methyl-1,4,6,7-tetrahydro-5H-imidazo[4,5-c]pyridin-5-yl)ethyl)bicyclo[2.2.1]heptane-1-carboxylic acid], the IC50 in test [1] stood at 2.9 nM; in test [2] it was 1.78 nM.
